IC50 data for 25 compounds are collected here from patent US7816522B2, “Triazolone derivatives” (Eisai Co., Ltd., priority 2006, dated 2010).

SMILES strings stand for the structures.

T1 sequence (P08709 213-466 limits assumed): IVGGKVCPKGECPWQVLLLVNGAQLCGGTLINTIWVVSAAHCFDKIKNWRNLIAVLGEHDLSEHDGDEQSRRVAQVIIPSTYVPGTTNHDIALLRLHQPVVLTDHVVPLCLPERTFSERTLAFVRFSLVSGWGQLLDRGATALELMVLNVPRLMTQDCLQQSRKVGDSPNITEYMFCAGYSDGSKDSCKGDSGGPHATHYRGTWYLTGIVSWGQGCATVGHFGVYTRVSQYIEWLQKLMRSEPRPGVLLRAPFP
T1 sequence (P08709 61-212 limits assumed): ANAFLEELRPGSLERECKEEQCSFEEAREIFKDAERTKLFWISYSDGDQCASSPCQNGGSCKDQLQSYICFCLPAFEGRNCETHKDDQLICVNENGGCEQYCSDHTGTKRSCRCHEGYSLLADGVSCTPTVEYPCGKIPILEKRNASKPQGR
T1 sequence (P13726 33-295 partner): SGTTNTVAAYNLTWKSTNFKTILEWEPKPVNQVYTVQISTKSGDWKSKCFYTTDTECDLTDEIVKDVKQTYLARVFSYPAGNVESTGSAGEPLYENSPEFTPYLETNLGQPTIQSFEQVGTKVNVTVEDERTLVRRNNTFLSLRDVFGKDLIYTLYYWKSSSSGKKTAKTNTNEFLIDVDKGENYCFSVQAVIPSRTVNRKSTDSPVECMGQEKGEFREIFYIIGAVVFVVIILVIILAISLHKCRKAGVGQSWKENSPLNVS

The assay addresses T1, human clotting factor VIIa (Homo sapiens, UniProt P08709).
T1 construct: a human clotting factor VIIa (hereinafter, “Factor VIIa”) purified sample; purchased Enzyme Research Laboratories HFVIIa
Briefly: Inhibitory activity against clotting factor VIIa (chromogenic substrate Spectrozyme FVIIa, TF/Factor VIIa enzyme solution). The assay is classed as biochemical. The settings on record: human Factor VIIa 5 nmol/L with human TF 10 nmol/L, room temperature 40 minutes, 405 nm. The method, boiled down:
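Human Factor VIIa (5 nmol/L) with human TF (10 nmol/L) in Tris-BSA buffer pH 7.4 containing 15 mmol/L CaCl2 and cephalin, with Spectrozyme FVIIa substrate. Reaction 40 min at room temperature; 4-nitroanilide read at 405 nm. IC50 by non-linear regression over 100 μmol/L–0.1 nmol/L.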
`COc1cc(C(Nc2ccc(C(=N)N)cc2)c2nn(-c3ncccc3F)c(=O)[nH]2)cc2c1OCCCO2` (racemic) [Example 30, (R) and (S)-4-({[1-(3-fluoropyridin-2-yl)-5-oxo-4,5-dihydro-1H-[1,2,4]triazol-3-yl]-(9-methoxy-3,4-dihydro-2H-benzo[b][1,4]dioxepin-7-yl)methyl}amino)benzamidine acetate] had a half-inhibitory concentration (IC50) of 3.9 nM. This counts as single-digit nanomolar.
For the compound `COc1cc(C)cc(C(Nc2ccc(C(=N)N)cc2)c2nn(-c3ncccn3)c(=O)[nH]2)c1` (racemic) [Example 93, 4-{[(R) and (S)-(3-methoxy-5-methylphenyl)-(5-oxo-1-pyrimidin-2-yl-4,5-dihydro-1H-[1,2,4]triazol-3-yl)methyl]amino}benzamidine acetate], inhibition was half-maximal at 30.3 nM (IC50).
`COc1cc(C(Nc2ccc(C(=N)N)cc2)c2nn(-c3ncccn3)c(=O)[nH]2)ccc1OCC#N` (racemic) [Example 16, (R) and (S)-4-{[(4-cyanomethoxy-3-methoxyphenyl)-(5-oxo-1-pyrimidin-2-yl-4,5-dihydro-1H-[1,2,4]triazol-3-yl)methyl]amino}benzamidine acetate] registered an IC50 of 11.5 nM. Against the preceding compound, the IC50 is about 2.6-fold lower.
Take `COc1cc(OCCO)c(F)c(C(Nc2ccc(C(=N)N)cc2)c2nn(-c3ncccn3)c(=O)[nH]2)c1` (stereo not shown) [Example 181, 4-({[2-fluoro-3-(2-hydroxyethoxy)-5-methoxyphenyl]-(5-oxo-1-pyrimidin-2-yl-4,5-dihydro-1H-[1,2,4]triazol-3-yl)methyl}amino)benzamidine acetate]: half-maximal inhibition (IC50) required 9.3 nM.
`CCOc1cc(C(Nc2ccc(C(=N)N)cc2)c2nn(-c3ncccn3)c(=O)[nH]2)cnc1OC` (racemic) [Example 160, 4-{[(R) and (S)-(5-ethoxy-6-methoxypyridin-3-yl)-(5-oxo-1-pyrimidin-2-yl-4,5-dihydro-1H-[1,2,4]triazol-3-yl)methyl]amino}benzamidine acetate] yielded an IC50 of 9.4 nM.
The value for `COc1cc(F)c(C(Nc2ccc(C(=N)N)cc2)c2nn(-c3nc[nH]c3C(=O)O)c(=O)[nH]2)cc1OC` (single isomer, unassigned) [Example 187, 5-{3-[(4-Carbamimidoylphenylamino)-(2-fluoro-4,5-dimethoxyphenyl)methyl]-5-oxo-4,5-dihydro-[1,2,4]triazol-1-yl}-3H-imidazole-4-carboxylic acid] was 9 nM; that for `CCOc1cc(O)cc(C(Nc2ccc(C(=N)N)cc2)c2nn(-c3ncccn3)c(=O)[nH]2)c1` (racemic) [Example 221, 4-{[(3-Ethoxy-5-hydroxyphenyl)-(5-oxo-1-pyrimidin-2-yl-4,5-dihydro-1H-[1,2,4]triazol-3-yl)methyl]amino}benzamidine] was 25.8 nM.
`COc1cc(OC)c(F)c(C(Nc2ccc(C(=N)N)cc2)c2nn(-c3cccnn3)c(=O)[nH]2)c1` (racemic) [Example 145, (R) and (S)-4-{[(2-fluoro-3,5-dimethoxyphenyl)-(5-oxo-1-pyridazin-3-yl-4,5-dihydro-1H-[1,2,4]triazol-3-yl)methyl]amino}benzamidine acetate] came in with an IC50 of 8.7 nM.
`CCc1cc(OCC(C)(C)CN(C)C)c(F)c(C(Nc2ccc(C(=N)N)cc2)c2nn(-c3ccccc3C(=O)O)c(=O)[nH]2)c1` (stereo not shown) [Example 142, 2-(3{(4-carbamimidoyl-phenylamino)-[3-(3-dimethylamino-2,2-dimethylpropoxy)-5-ethyl-2-fluorophenyl]methyl}-5-oxo-4,5-dihydro-1H-[1,2,4]triazol-1-yl}benzoic acid bistrifluoroacetate]: the IC50 turned out to be 4.7 nM.
`COc1cc(C(Nc2ccc(C(=N)N)cc2)c2nn(-c3ncccc3N)c(=O)[nH]2)cc(C)n1` (racemic) [Example 19, (R) and (S)-4-({[1-(3-aminopyridin-2-yl)-5-oxo-4,5-dihydro-1H-[1,2,4]triazol-3-yl]-(2-methoxy-6-methylpyridin-4-yl)methyl}amino)benzamidine acetate] gave an IC50 of 12.8 nM.
Compound `COc1cc(C(Nc2ccc(C(=N)N)cc2)c2nn(-c3ncccn3)c(=O)[nH]2)c(F)cc1OCCO` (racemic) [Example 208, 4-{[(R) and (S)-[2-Fluoro-4-(2-hydroxyethoxy)-5-methoxyphenyl]-(5-oxo-1-pyrimidin-2-yl-4,5-dihydro-1H-[1,2,4]triazol-3-yl)methyl]amino}benzamidine acetate] came in with a half-maximal inhibitory concentration (IC50) of 85.6 nM.
As for `Cc1cc(O[C@H]2CCOC2)cc(C(Nc2ccc(C(=N)N)cc2)c2nn(-c3ncccn3)c(=O)[nH]2)c1` (mixture of isomers) [Example 58, 4-[((R) and (S)-{3-methyl-5-[(S)-(tetrahydrofuran-3-yl)oxy]phenyl}-(5-oxo-1-pyrimidin-2-yl-4,5-dihydro-1H-[1,2,4]triazol-3-yl)methyl)amino]benzamidine acetate], the IC50 turned out to be 3.4 nM.
For `COc1cc(C(Nc2ccc(C(=N)N)cc2)c2nn(-c3ccsc3C(=O)O)c(=O)[nH]2)cc2c1OCOC2` (racemic) [Example 226, 3-{3-[(R) and (S)-(4-Carbamimidoylphenylamino)-(8-methoxy-4H-benzo[1,3]dioxin-6-yl)methyl]-5-oxo-4,5-dihydro-[1,2,4]triazol-1-yl}thiophene-2-carboxylic acid] the value was 3.2 nM; for `COc1ccc(C(Nc2ccc(C(=N)N)c(O)c2)c2nn(-c3ccccc3C(=O)O)c(=O)[nH]2)cc1OC` (racemic) [Example 183, 2-{3-[(R) and (S)-(4-carbamimidoyl-3-hydroxyphenylamino)-(3,4-dimethoxyphenyl)methyl]-5-oxo-4,5-dihydro-[1,2,4]triazol-1-yl}benzoic acid], 10.6 nM; for `COc1ccccc1-n1nc(C(Nc2ccc(C(=N)N)cc2)c2cc(C)c(OC)c(C)c2)[nH]c1=O` (stereo not shown) [Example 112, 4-({(4-methoxy-3,5-dimethylphenyl)-[1-(2-methoxyphenyl)-5-oxo-4,5-dihydro-1H-[1,2,4]triazol-3-yl]methyl}amino)benzamidine acetate], 7.2 nM.
`COc1cc(C(Nc2ccc(C(=N)N)cc2)c2nn(-c3ncccn3)c(=O)[nH]2)ccc1OCCF` (racemic) [Example 81, (R) and (S)-4-({[4-(2-fluoroethoxy)-3-methoxyphenyl]-(5-oxo-1-pyrimidin-2-yl-4,5-dihydro-1H-[1,2,4]triazol-3-yl)methyl}amino)benzamidine acetate] registered an IC50 of 18.6 nM. This IC50 lies about 2.6-fold higher than the previous one.
In turn, `COc1cc(C(Nc2ccc(C(=N)N)cc2)c2nn(-c3ccccn3)c(=O)[nH]2)cc2c1OCOC2` (racemic) [Example 213, (R) and (S)-4-{[(8-Methoxy-4H-benzo[1,3]dioxin-6-yl)-(5-oxo-1-pyridin-2-yl-4,5-dihydro-1H-[1,2,4]triazol-3-yl)methyl]amino}benzamidine acetate] had an IC50 of 3.3 nM.
`COc1cc(O)c(F)c(C(Nc2ccc(C(=N)N)cc2)c2nn(-c3ncccn3)c(=O)[nH]2)c1` (stereo not shown) [Example 224, 4-{[(2-Fluoro-3-hydroxy-5-methoxyphenyl)-(5-oxo-1-pyrimidin-2-yl-4,5-dihydro-1H-[1,2,4]triazol-3-yl)methyl]amino}benzamidine acetate] returned a half-maximal inhibitory concentration (IC50) of 48.8 nM.
On to `COc1cc(OC)cc(C(Nc2ccc(C(=N)N)cc2)c2nn(-c3ncccn3)c(=O)[nH]2)c1` (racemic) [Example 9, (R) and (S)-4-{[(3,5-dimethoxyphenyl)-(5-oxo-1-pyrimidin-2-yl-4,5-dihydro-1H-[1,2,4]triazol-3-yl)methyl]amino}benzamidine acetate], for which the IC50 was determined as 9.8 nM.
The value for `N=C(N)c1ccc(NC(c2nn(-c3ncccn3)c(=O)[nH]2)c2cc(OCCF)cc(OCCF)c2F)cc1` (racemic) [Example 98, 4-{[(R) and (S)-[2-fluoro-3,5-bis-(2-fluoroethoxy)phenyl]-(5-oxo-1-pyrimidin-2-yl-4,5-dihydro-1H-[1,2,4]triazol-3-yl)methyl]amino}benzamidine acetate] was 28.7 nM.
The value for `CCOc1cc(C(Nc2ccc(C(=N)N)cc2)c2nn(-c3ncccc3C)c(=O)[nH]2)ccc1OCC(=O)NC` (stereo not shown) [Example 127, 2-(4-{(4-carbamimidoylphenylamino)-[1-(3-methylpyridin-2-yl)-5-oxo-4,5-dihydro-1H-[1,2,4]triazol-3-yl]methyl}-2-ethoxyphenoxy)-N-methylacetamide acetate] was 9.3 nM; that for `COc1cc(C(Nc2ccc(C(=N)N)cc2)c2nn(-c3ncccn3)c(=O)[nH]2)c(F)c2c1OCC2` (racemic) [Example 161, (R) and (S)-4-{[(4-fluoro-7-methoxy-2,3-dihydrobenzofuran-5-yl)-(5-oxo-1-pyrimidin-2-yl-4,5-dihydro-1H-[1,2,4]triazol-3-yl)methyl]-amino}benzamidine acetate] was 9 nM; that for `COCCOc1cc(OC)cc(C(Nc2ccc(C(=N)N)cc2)c2nn(-c3ncccc3N)c(=O)[nH]2)c1F` (racemic) [Example 203, 4-({(R) and (S)-[1-(3-Aminopyridin-2-yl)-5-oxo-4,5-dihydro-1H-[1,2,4]triazol-3-yl]-[2-fluoro-5-methoxy-3-(2-methoxyethoxy)phenyl]methyl}amino)benzamidine acetate] was 8.5 nM.
For `Cc1cc(OC2CCOCC2)cc(C(Nc2ccc(C(=N)N)cc2)c2nn(-c3ncccn3)c(=O)[nH]2)c1` (racemic) [Example 60, (R) and (S)-4-({[3-methyl-5-(tetrahydropyran-4-yloxy)phenyl]-(5-oxo-1-pyrimidin-2-yl-4,5-dihydro-1H-[1,2,4]triazol-3-yl)methyl}amino)benzamidine acetate] the value was 3.7 nM; for `CCOc1cc(C(Nc2ccc(C(=N)N)cc2)c2nn(-c3ccsc3C(=O)O)c(=O)[nH]2)cnc1OC` (racemic) [Example 235, 3-{3-[(4-Carbamimidoylphenylamino)-(5-ethoxy-6-methoxypyridin-3-yl)methyl]-5-oxo-4,5-dihydro-[1,2,4]triazol-1-yl}thiophene-2-carboxylic acid], 3.8 nM.

One may read the IC50 as the concentration at which inhibition is half-maximal. Lower therefore signals higher potency.
